Earlier results on 6 molecules are cited in PMC11956011, “An Amazing 30-Year Journey around the DABO Family: A Medicinal Chemistry Lesson on a Versatile Class of Non-nucleoside HIV-1 Reverse Transcriptase Inhibitors” (Journal of Medicinal Chemistry, 2025).

Molecules are shown by their SMILES. Where two headings read alike, the source gives them in different places.

The test system of one data set is E233V HIV-1 RT. Further details: method as in PMID 9748354, PMID 9554867.
The next data set relates to R88703-R-IIIB (Y181C). Also on record: method as in PMID 9748354, PMID 9554867. To be noted: read-out: p24 inhibition in MT-4 infected cells, IC90: R88703-R-IIIB (Y181C).
Another data set has as its system L-697661-R-IIIB (Y181C). Further details: method as in PMID 9748354, PMID 9554867. To be noted: read-out: p24 inhibition in MT-4 infected cells, IC90: L-697661-R-IIIB (Y181C).
The next data set relates to DLV-R-IIIB (L100I). Further details: method as in PMID 9748354, PMID 9554867. The conditions noted are these: read-out: p24 inhibition in MT-4 infected cells, IC90: DLV-R-IIIB (L100I).
For the next data set, the system named is Y188H HIV-1 RT. Also on record: method as in PMID 9748354, PMID 9554867.
In the next data set the test system is DLV-R-MF (P236L). Also on record: method as in PMID 9748354, PMID 9554867. To be noted: read-out: p24 inhibition in MT-4 infected cells, IC90: DLV-R-MF (P236L).
A further data set has as its system HIV-1 IIIB. Further details: method as in PMID 9748354, PMID 9554867. The conditions noted are these: read-out: p24 inhibition in MT-4 infected cells, IC90: IIIB.
A further data set has as its system Y181C HIV-1 RT. Also on record: method as in PMID 9748354, PMID 9554867.
In another data set the test system is P236L HIV-1 RT. Further details: method as in PMID 9748354, PMID 9554867.
Data set [1] relates to HIV-1 RT (WT, recombinant). To be noted: Fig 4.
The test system of data set [2] is E138K HIV-1 mutant strain. The conditions noted are these: Fig 12, in brackets.
On the set-up of data set [3]: method as in doi:10.1039/c3md00247k, PMID 21752202. To be noted: in vivo.
Details of data set [4]: method as in doi:10.1039/c3md00247k. The conditions noted are these: mouse models.
Data set [5] concerns HIV-1. Also on record: method as in PMID 5787520. The conditions noted are these: 3.5 μM; MoI = 5 CCID50/cell; 40 days.
The target in the next data set is V106A HIV-1 RT. To be noted: Fig 4.
Data set [6] relates to HIV-1. Also on record: method as in PMID 8602869. To be noted: day 3 and 4 p.i.; read-out: p24 inhibition in PBMC-infected cells IC50.
Data set [7] concerns HIV-1. Also on record: method as in PMID 8602869. To be noted: read-out: syncytia reduction assay in MT-2-infected cells IC50.

A word on the IC50: it is the midpoint of a concentration-inhibition curve. As a reminder, the IC90 is the point of the concentration-response curve where the effect stands at 90%. For the molecule `C[C@H](Sc1nc(N)cc(Cl)n1)c1cc2ccoc2cn1` [compound 21, (−)-6-chloro-2-[(1-furo[2,3-c]pyridin-5-ylethyl)thio]-4-pyrimidinamine], the IC50 was 17 nM in the data set on E233V HIV-1 RT; 39 nM in the data set with L100I HIV-1 RT; 77 nM in the data set with Y188H HIV-1 RT; 179 nM in the data set on Y181C HIV-1 RT; 22 nM in the data set with P236L HIV-1 RT; 20 nM in [1] (read-out: RT assay, IC50: WT). Also, the IC90 was 170 nM in the data set on R88703-R-IIIB (Y181C); 1100 nM in the data set with L-697661-R-IIIB (Y181C); 70 nM with DLV-R-IIIB (L100I); 8 nM in the data set with DLV-R-MF (P236L); 1 nM in the data set on HIV-1 IIIB.
On to `Cc1c(C(C#N)c2c(F)cccc2F)nc(SC(C)C)[nH]c1=O` (stereo not shown) [compound 153], for which the “Fold-resistance E138K (EC50 vs HIV-1IIIB)” value in data set [2] is reported as 2.4. Besides, the “acute toxicity (in words)” value in data set [3] is reported as “without acute toxicity”. In addition, in [4], the “oral bioavailability (in words)” value is “optimal oral bioavailability”.
In the case of `Cc1c(C(C)c2c(F)cccc2F)nc(N(C)C)[nH]c1=O` (racemic) [compound 116], the “water solubility (in words)” value is “scant water solubility”. Further, the “HIV-1 replication in acutely infected cultures after 4 h treatment” value in the data set with HIV-1 [5] is given as “totally suppressed HIV-1 replication”.
The term EC50 denotes the concentration giving half of the maximal effect. Take `CCCN(C)c1nc(C(C)c2c(F)cccc2F)c(C)c(=O)[nH]1` (stereo not shown) [compound 119]: the EC50 in the data set on HIV-2ROD was 8600 nM.
In general, Ki refers to a measure of affinity in units of concentration, obtained from inhibition or displacement. `O=c1cc(Cc2ccccc2)nc(NCCCCO)[nH]1` [compound 23, 6-benzyl-N^2-(4-hydroxybutyl)isocytosine]: the Ki was 525000 nM on L100I HIV-1 RT (Fig 4), 75000 nM on V106A HIV-1 RT and 140000 nM in data set [1].
`Nc1cc(Cl)nc(SCc2ccccc2)n1` [compound 19, 4-amino-2-(benzylthio)-6-chloropyrimidine]: the IC50 was 100 to 1000 nM with HIV-1 [6], 400 to 4000 nM in the data set on HIV-1 [7] and 50000 to 80000 nM in data set [1] (read-out: RT assay IC50). In the data set with MT-2 cells, the “cytotoxicity in MT-2-infected cells” value is more than 16 µM. For the same molecule, the “cytotoxicity in PBMC-infected cells” value with PBMC is more than 16 µM.
